Reference: patent publication US11286256B2, “Bicyclic inhibitors of histone deacetylase” (Alkermes, Inc., priority 2017, dated 2022)
≈ marks a conversion by molar mass, not a printed value. Like-named read-outs stand apart in the source and are kept apart here.

Assays:
[1] = Brain and plasma exposure following IV and PO administration to mice; format: in vivo; conditions: for Mouse IV-PO (1/10 mpk): F: IV 1 mpk / PO 10 mpk; for clearance / half-life: plasma
Description: Compounds were dosed in mice at either 10 mg/kg or 30 mg/kg PO, and were dosed at 1 mg/kg IV. Three animals for collection at each time point for plasma via bleeding at 0.25, 0.5, 1, 4, 12 and 24 h. Terminal bleeding for plasma and sampling for brain at 0.25, 0.5, 1, 4, 12 and 24 h (also three animals per brain exposure time point group). Total of six time points for plasma and six time points for brain.
Plasma: The animal was restrained manually at the designated time points, approximately 150 μL blood/time point was collected into K2EDTA tube via retro orbital puncture or cardiac puncture under anesthesia with Isoflurane. The blood sample was centrifuged (2000 g, 4° C., 5 min) to generate plasma within 30 min after bleeding.
Brain: At the designated time points, a mid-line incision was made in the animals scalp and the skin was retracted. Using small bone cutters and rongeurs, removed the skull overlying the brain. Removed the brain using a spatula and rinse with cold saline. Placed the brain in screw-top tubes, and then stored the tubes under −70° C. until analysis.

[2] = tested on: dendritic spines of CA1 pyramidal neurons, dorsal hippocampus; experiment: Dendritic spine morphology in dorsal hippocampus (CA1) after 14 days of oral treatment; format: in vivo, wild type mice (C57BL/6J); conditions: for Thin Spines (% increase over vehicle) / Total Spines (% increase over vehicle): 14 days, WT mice; for dendritic spine density (in words, earlier studies): Compound 2 at 1, 3, 6 and 20 mg/kg/day, Compound 1 at 10 mg/kg/day
Description: Compounds were evaluated to determine whether sub-chronic treatment could produce changes in dendritic spine morphology in the CA1 region of the dorsal hippocampus in wild type (WT) mice. Compounds were administered orally to wild type mice, daily for 14 days. Doses were chosen based on pharmacokinetic data, brain exposure, and potency. Effects of compounds treatments on dendritic spine morphology in the CA1 region of the dorsal hippocampus were then evaluated.
Male C57BL/6J mice (7-8-weeks old, n=7 per group) were dosed orally with Rodin compounds or vehicle (20% HPßCD) daily for 14 days. Doses for compounds were chosen based on exposure data from pharmacokinetic experiments. […] Mice were sacrificed 24 hours after the last dose, and underwent transcardial perfusion for preparation of brain samples.
Mice were anesthetized with chloral hydrate (4% chloral hydrate in saline, 10 ml/kg) before undergoing transcardial perfusion with 4% PFA in 1×PBS (pH7.4, room temperature) at 20 mL/min for 54 seconds. Immediately after the perfusion, mice were decapitated and their brain extracted. Brains were postfixed in scintillation vials containing 4% PFA (5-10 ml) for 4 min. Brains were sectioned using a tissue vibratome (Leica VT1000) to collect sections (300 μm thick) from the anterior to posterior extremes of each brain.
Superresolution laser-scanning confocal microscopy (Zeiss LSM880, Airyscan) was performed using a 63× objective (1.42 NA) to scan individually labeled neurons at high resolution (scan resolution=0.06 um μm/pixel; axial resolution=0.06 um μm/focal step). Target neurons were identified in the brain region of interest by epifluorescence navigation using anatomical location and cell morphology. Microscopy was performed blind to experimental conditions. A minimum of 7 mice were tested in each experimental condition. A minimum of 5 samples per mouse (range=5-6) were measured for each segment.
Blind deconvolution (AutoQuant) was applied to raw three-dimensional digital images which were then analyzed for spine density and morphology by trained analysts. Individual spines were measured manually for (a) head diameter, (b) length, and (c) neck thickness from image Z-stacks using custom-built Afraxis ESP software. Each dendrite was analyzed by 3 (on average) independent analysts. Automated image assignment software distributed images to analysts in a randomized manner and ensured that each analyst performed measurements of near equal numbers of dendrites per group. Analysts were blinded to all experimental conditions (including treatment, brain region, and cell type).
Each identified dendritic spine was measured for (a) spine length, (b) spine head diameter, and (c) neck width. Population distributions of each measure were compiled for each dendritic sample and pooled by group. Raw dendritic spine morphometric values (spine length, head diameter, neck width) were assembled into a scheme used to describe classic spine phenotypes (e.g. mushroom, stubby, etc.). Total spine density was also reported as the sum of the density of all subclasses.
General Observations. […] For adequate study to study comparisons, total spine density data were normalized to % vehicle levels
[formula] Data were then reported as mean+/−SEM of total spine density (% increase from Vehicle).

[3] = Aqueous kinetic solubility measurement; format: physicochemical
Description: Compounds were evaluated for their kinetic solubility in buffer or water. Aliquots of 8 μL of reference and test compound stock solutions (10 mM in DMSO) were added into 792 μL of 100 mM phosphate buffer (0.1 M NaPO4, pH 7.4). Final DMSO concentration is 1%. The sample tubes were shaken for 1 hour (1000 rpm) at room temperature. A calibration curve was prepared using 300 μM spiking solution (SS) in MeOH/ACN(4:1) (SS=add 6 μL 10 mM compound in 194 μL MeOH/ACN(4:1)). Samples were centrifuged for 10 min (12000 rpm) to precipitate undissolved particles, and the supernatants were transferred to a new tube or plate. Supernatants were diluted 10 times and 100 times with 100 mM buffer. Samples were then prepared for analysis by LC-MS/MS (Add 5 μL of compound samples (not diluted, 10 times diluted and 100 times diluted) and standard curve samples to 95 μL of ACN containing internal standard. Internal standards used are Propranolol, Ketoconazole, and Tamoxifen.

Mouse IV-PO (1/10 mpk): F [1] [%]	Mouse PO (10 mpk): Brain Cmax ([1]; brain) [ng/g]	Mouse PO (10 mpk): Free brain Cmax ([1]; free brain) [ng/g]	Compound	Thin Spines (% increase over vehicle) ([2]; 0.1 mg/kg PO daily) [%]	Total Spines (% increase over vehicle) ([2]; 0.1 mg/kg PO daily) [%]	Thin Spines (% increase over vehicle) ([2]; 1 mg/kg PO daily) [%]	Total Spines (% increase over vehicle) ([2]; 1 mg/kg PO daily) [%]	Thin Spines (% increase over vehicle) ([2]; 3 mg/kg PO daily) [%]	Total Spines (% increase over vehicle) ([2]; 3 mg/kg PO daily) [%]	dendritic spine density (in words, earlier studies) [2]	further results
–	–	–	Nc1ccc(-c2ccc(F)cc2)nc1NC(=O)N1Cc2cncnc2C1 [Comparator D]	–	–	–	–	–	–	–	Projected Brain Cmax @ 10 mpk (*scaled for comparison) ([1]; mouse, brain, scaled to 10 mpk for comparison): 158* ng/g
49	100	35	Nc1ccc(-c2cccs2)nc1NC(=O)N1Cc2cncnc2C1 [Comparator E]	–	–	–	–	–	–	–	–
–	–	–	COCc1cc2c(cn1)CN(C(=O)Nc1nc(-c3ccc(F)cc3F)ccc1N)C2 [Compound 1]	13.8	12.2	45.1	34.6	25.3	26.7	increases in dendritic spine density	Thin Spines (% increase over vehicle) ([2]; 0.3 mg/kg PO daily): 23.2%; Total Spines (% increase over vehicle) ([2]; 0.3 mg/kg PO daily): 21.3%; Thin Spines (% increase over vehicle) ([2]; 10 mg/kg PO daily): 19.9%; Total Spines (% increase over vehicle) ([2]; 10 mg/kg PO daily): 25.1%; Projected Brain Cmax @ 10 mpk ([1]; mouse, 10 mpk, brain): 2460 ng/g; Projected free brain @ 10 mpk ([1]; mouse, 10 mpk, free brain): 1.04 µM; clearance ([1]; 1 mg/kg, mouse, IV, read-out: IV PK Cl (converted)): 11.4 mL/min/kg; half-life ([1]; 1 mg/kg, mouse, IV, read-out: IV PK T ½ (converted)): 2.13 h; half-life ([1]; 10 mpk, mouse, PO, read-out: PK T ½ PO (converted)): 1.97 h; solubility (in words) [3]: slightly reduced; solubility at 1 h ([3]; aqueous buffer, kinetic from dmso stock, kinetic, 100 mM phosphate buffer pH 7.4, 1% DMSO): 27 µM (≈ 11.1 µg/mL)
100	583	173	Cc1ncc2c(n1)CN(C(=O)Nc1nc(-c3cccs3)ccc1N)C2 [Compound 2]	11.3	8.1	21.2	21.4	32.2	24.7	increases in dendritic spine density	Thin Spines (% increase over vehicle) ([2]; 6 mg/kg PO daily): 35.4%; Total Spines (% increase over vehicle) ([2]; 6 mg/kg PO daily): 15%; Thin Spines (% increase over vehicle) ([2]; 20 mg/kg PO daily): 37.4%; Total Spines (% increase over vehicle) ([2]; 20 mg/kg PO daily): −0.12%; higher brain exposure over the unsubstituted pyrimidine analog ([1]; mouse, relative to Comparator E): > 5 fold; clearance ([1]; 1 mg/kg, mouse, IV 1 mpk, read-out: Mouse IV (1 mpk): Cl (converted)): 69.7 mL/min/kg; half-life ([1]; 1 mg/kg, mouse, IV 1 mpk, read-out: Mouse IV (1 mpk): T1/2 (converted)): 0.839 h; half-life ([1]; 10 mpk, mouse, PO, read-out: Mouse PO (1/10 mpk): T1/2 (converted)): 1.05 h
